From patent US7265107B2, “Rifamycin C-11 oxime cyclo derivatives effective against drug-resistant microbes” (Cumbre Pharmaceuticals Inc., priority 2004, dated 2007)
Converted amounts (≈) assume the structure as drawn. Like-named read-outs stand apart in the source and are kept apart here.

How the values were obtained:
Assay type in all cases: cell-based
[1] = test system: Staphylococcus aureus EN1252a gvrA^S84L grlA^S80F; assay: microbe, parasite or virus in culture; conditions: read-out: Antimicrobial activity (MIC)
Method: (§1) Representative compounds were assayed for antimicrobial activity as follows: Minimum Inhibitory Concentrations (“MICs”) were determined by the microbroth dilution method as per NCCLS guidelines (National Committee for Clinical Laboratory Standards. 2000. Methods for dilution antimicrobial susceptibility tests for bacteria that grow aerobically, 5th ed. M7-A5. National Committee for Clinical Laboratory Standards, Wayne, Pa.), except that all growth incubations were conducted at 37° C. Bacterial cultures were tested in the following bacteriological media: S. aureus, S. epidermidis, and E. coli in Cation-Adjusted Mueller-Hinton Broth, S. pneumoniae in THY Broth supplemented with 1 mg/mL catalase under 5% CO2 atmosphere, S. pyogenes in THY Broth, E. faecalis in BHI Broth, H. influenzae in BHI Broth supplemented with 0.75 μL of 1 mg/mL NAD and 150 μL of 1 mg/ml hematin per 5 mL, and M. smegmatis in Middlebrook Broth plus ADC Enrichment.
S. aureus EN1252a gyrA^S84L grlA^S80F is a quinolone-resistant strain due to double mutations to the genes confer DNA gyrase and topoisomerase IV.

[2] = test system: Streptococcus pneumoniae ATCC6303; conditions: rifS, THY Broth with 1 mg/mL catalase, 5% CO2, 37° C., read-out: Antimicrobial activity (MIC)
[3] = test system: Enterococcus faecalis ATCC29212; conditions: rifS, BHI Broth, 37° C., read-out: Antimicrobial activity (MIC)
[4] = test system: Haemophilus influenzae ATCC10211; conditions: rifS, BHI Broth with NAD and hematin, 37° C., read-out: Antimicrobial activity (MIC)
[5] = test system: Streptococcus pyogenes ATCC19615; conditions: rifS, THY Broth, 37° C., read-out: Antimicrobial activity (MIC)
[6] = MIC, microbroth dilution, panel of rifampin-susceptible Gram-positive strains; conditions: across the five rifampin-susceptible Gram-positive strains
Method: as §1
S. aureus ATCC […], S. epidermidis ATCC 12228, S. pneumoniae ATCC6303, S. pyogenes ATCC 19615 and E. faecalis ATCC 29212 are rifampin-susceptible Gram-positive strains. […] The compounds of the current invention show further improved activity against these strains with MICs as low as 0.0005 μg/ml.

[7] = cipR, Cation-Adjusted Mueller-Hinton Broth, 37° C.

SMILES | MIC [1, 7] [ng/mL] | MIC [2] [ng/mL] | MIC [3] [ng/mL] | MIC [4] [ng/mL] | MIC [1] [ng/mL] | MIC [5] [ng/mL] | MIC [6] [ng/mL]
CO[C@H]1/C=C/O[C@@]2(C)Oc3c(C)c(O)c4c(=O)c(c5oc6cc(N7CCN(CC(C)C)CC7)ccc6nc-5c4c3/C2=N/O)NC(=O)/C(C)=C\C=C\[C@H](C)[C@H](O)[C@@H](C)[C@@H](O)[C@@H](C)[C@H](OC(C)=O)[C@@H]1C [Example 20, 11-Deoxy-11-hydroxyimino-1′,4-didehydro-1-deoxy-1,4-dihydro-5′-(4-isobutyl-1-piperazinyl)-1-oxo-rifamycin VIII] | 0.5 to 125 (≈ 0.532 to 133 nM) | 0.06 to 31 (≈ 0.0638 to 33 nM) | 500 to 31200 (≈ 532 to 33200 nM) | 125 to 8000 (≈ 133 to 8510 nM) |  |  | 
CO[C@H]1/C=C/O[C@@]2(C)Oc3c(C)c(O)c4c(c3/C2=N/OCC(=O)O)C2=NC3(CCN(CC(C)C)CC3)NC2=C(NC(=O)/C(C)=C\C=C\[C@H](C)[C@H](O)[C@@H](C)[C@@H](O)[C@@H](C)[C@H](OC(C)=O)[C@@H]1C)C4=O [Example 21, 11-Deoxy-11-(4-carboxymethoxyimino)-1′,4-didehydro-1-deoxy-1,4-dihydro-5′-(2-methylpropyl)-1-oxo-rifamycin XIV] | 0.5 to 125 (≈ 0.543 to 136 nM) | 0.06 to 31 (≈ 0.0652 to 33.7 nM) | 500 to 31200 (≈ 543 to 34000 nM) | 125 to 8000 (≈ 136 to 8690 nM) |  |  | 
COc1c(N2CCN(C(=O)CO/N=C3/c4c5c(C)c(O)c6c4C4=NC7(CCN(CC(C)C)CC7)NC4=C(NC(=O)/C(C)=C\C=C\[C@H](C)[C@H](O)[C@@H](C)[C@@H](O)[C@@H](C)[C@H](OC(C)=O)[C@H](C)[C@@H](OC)/C=C/O[C@@]3(C)O5)C6=O)C(C)C2)c(F)cc2c(=O)c(C(=O)O)cn(C3CC3)c12 (stereo partly drawn) [Example 22, 11-Deoxy-11-{2-oxo-2-[2-methyl4-(3-carboxy-1-cyclopropl-2-methoxy-6-fluoro-4-oxo-1,4-dihydroquinolin-7-yl)piperazin-1-yl]ethoxyimino}-1′,4-didehydro-1-deoxy-1,4-dihydro-5′-(2-methylpropyl)-1-oxo-rifamycin XIV] | 0.5 to 125 (≈ 0.391 to 97.9 nM) | 0.06 to 31 (≈ 0.047 to 24.3 nM) | 500 to 31200 (≈ 391 to 24500 nM) | 125 to 8000 (≈ 97.9 to 6260 nM) |  |  | 
CO[C@H]1/C=C/O[C@@]2(C)Oc3c(C)c(O)c4c(O)c(c(/C=N/N5CCN(C)CC5)c(O)c4c3C2=O)NC(=O)/C(C)=C\C=C\[C@H](C)[C@H](O)[C@@H](C)[C@@H](O)[C@@H](C)[C@H](OC(C)=O)[C@@H]1C [rifampin, reference compound] |  | 61 (≈ 74.1 nM) | 1000 (≈ 1220 nM) | 240 (≈ 292 nM) | 4 (≈ 4.86 nM) | 13 (≈ 15.8 nM) | 13 to 1000 (≈ 15.8 to 1220 nM)
